Results: article PMC7688903 (Frontiers in Microbiology, 2020)
Entries after “also recorded” stand apart in the source; their conditions may differ. Where no end group is shown, it is not given here. [ ]: non-standard residue; d: D form. 2Thi = N[C@@H](Cc1cccs1)C(=O)O; Aib = CC(C)(N)C(=O)O

Experiments:
Trypsin = test: trypsin in 0.1 M NH4HCO3 buffer (pH 8.2); conditions: 37°C, up to 24 h
[1] = plasma from healthy volunteers; conditions: human, 37°C, up to 36 h
E. coli ATCC 25922 = type: cell-based, Escherichia coli; conditions: ATCC 25922, 20 h
Description: (§1) The antimicrobial activities of the peptides were tested against E. coli ATCC 25922, P. aeruginosa ATCC 27853, carbapenem-resistant P. aeruginosa SIPI-012, A. baumannii ATCC 19606, carbapenem-resistant A. baumannii SIPI-025, S. aureus ATCC 25923, and C. albicans ATCC 10231. The minimum inhibitory concentration (MIC) values were determined using the microdilution method according to Clinical and Laboratory Standards Institute guidelines ([CLSI, 2008], [2012]). The peptides were dissolved in 10 mM PB to a concentration of 1280 μg/mL as stock solutions.
(§2) For inoculum preparation of bacteria, morphologically similar colonies selected from fresh MH agar plates were transferred using a loop into approximately 10 mL of MH broth in a capped test tube and vortexed. The suspension was adjusted with MH broth to achieve a turbidity equivalent to a 0.5 McFarland standard (BaSO4 solution prepared spectrophotometrically). A working suspension was prepared by making a 1:15 dilution followed by a 1:20 dilution of the stock suspension with MH broth medium to obtain approximately 5 × 10^5 CFU/mL. For inoculum preparation of yeast, five fresh colonies of approximately 1 mm diameter were picked from 24-hour-old cultures of C. albicans and suspended in 5 mL of sterile 0.85% saline. The resulting suspension was vortexed and the cell density was adjusted by adding sufficient sterile saline to achieve a turbidity equivalent to a 0.5 McFarland standard. A working suspension was prepared by making a 1:100 dilution followed by a 1:20 dilution of the stock suspension with RPMI 1640 broth medium to obtain 0.5 × 10^3 to 2.5 × 10^3 CFU/mL. Intermediate twofold dilutions of the peptides were prepared in MH broth and RPMI 1640 medium, and 90 μL aliquots were added to each well in addition to 10 μL of the inoculum prepared above.
(§3) Each plate included a growth control well and a sterility (uninoculated) control well. Colistin, vancomycin hydrochloride, and amphotericin B were used as positive controls for gram-negative bacteria, gram-positive bacteria, and fungi, respectively. The bacterial and fungal plates were incubated at 37°C for 20 h and 35°C for 48 h, respectively, both under ambient atmosphere. The inhibition of microbial growth was assessed visually. The MICs were determined from independent triplicate assays.

RAW 264.7 cells = test: Cell viability assay (MTT); type: cell-based, mouse; conditions: 1–128 μM peptide in DMEM with 4% FBS, 42 h, 595 nm, triplicate
Description: The peptides were dissolved in ddH2O to a concentration of 256 μM. RAW 264.7 cells were cultured in 100 μL of DMEM containing 10% FBS and seeded at a density of 1 × 10^4 cells in a 96-well culture plate. The plate was incubated at 37°C under 5% CO2 atmosphere overnight. After attaining 80% confluency, the cells were treated with various concentrations of the peptides (1–128 μM) dissolved in DMEM containing 4% FBS for 42 h. Cytotoxicity was determined using the MTT tetrazolium reduction assay and quantified spectrophotometrically at 595 nm using a SpectraMax i3x microplate reader. The cell viability was calculated with respect to control samples treated only with DMEM containing 4% FBS ([Khara et al., 2016]). Each test was done in triplicate and the concentration required for 50% inhibition of viability (IC50) was determined.

human erythrocytes = test: Hemolytic activity assay; type: cell-based; conditions: human RBC in PB, 37°C, 1 h, OD420, total lysis control 0.1% SDS, three technical replicates
Description: Whole blood was obtained from a healthy volunteer. The red blood cells (RBC) were then centrifuged (800 × g, 10 min), washed twice with PB, resuspended in 1 mL of PB, and incubated with various concentrations of the peptides (32–128 μM) at 37°C for 1 h. As a positive control, total lysis of the RBC was accomplished by incubation with 0.1% SDS. For each condition, three technical replicates were performed. After incubation, the RBC were centrifuged at 800 × g for 10 min and the amount of hemoglobin released into the supernatant was determined by measuring the optical density OD420 using a SpectraMax i3x microplate reader (Molecular Devices) ([Zaet et al., 2017]).

human plasma proteases = test: in vitro
S. aureus ATCC 25923 = test: microbe, parasite or virus in culture; type: cell-based, Staphylococcus aureus; conditions: ATCC 25923, 20 h
Description: as §1, §2, §3

[2] = tested on: carbapenem-resistant P. aeruginosa (CRPA) SIPI-012; type: cell-based, Pseudomonas aeruginosa; conditions: carbapenem-resistant (CRPA) SIPI-012, 20 h
Description: as §1, §2, §3

P. aeruginosa ATCC 27853 = type: cell-based, Pseudomonas aeruginosa; conditions: ATCC 27853, 20 h
Description: as §1, §2, §3

C. albicans ATCC 10231 = test: microbe, parasite or virus in culture; type: cell-based, Candida albicans; conditions: ATCC 10231, 48 h
Description: as §1, §2, §3

[3] = tested on: carbapenem-resistant A. baumannii (CRAB) SIPI-025; type: cell-based, Acinetobacter baumannii; conditions: carbapenem-resistant (CRAB) SIPI-025, 20 h
Description: as §1, §2, §3

A. baumannii ATCC 19606 = type: cell-based, Acinetobacter baumannii; conditions: ATCC 19606, 20 h
Description: as §1, §2, §3

[4] = tested on: proteases secreted by S. aureus ATCC 25923; test: in vitro; conditions: Staphylococcus aureus, S. aureus ATCC 25923 culture supernatant, pH 8
Description: The stabilities of the peptides toward proteases secreted by E. coli ATCC 25922, P. aeruginosa ATCC 27853, A. baumannii ATCC 19606, S. aureus ATCC 25923, and C. albicans ATCC 10231 were also examined. Microbial supernatants were prepared by resuspending single colonies of each strain in 20 mL of an appropriate culture medium followed by incubation at 37°C overnight. MH broth and 2% tryptone/2% dextrose were used as the culture media for bacteria and yeast, respectively. Each culture was then centrifuged at 12,000 × g for 10 min and the supernatant was adjusted to pH 8.0 with HCl or NaOH and then filtered through a 0.22 μm sterile filter membrane ([Zaet et al., 2017]). The peptides were then dissolved in the filtered supernatants to a concentration of 0.5 mg/mL, and the peptide-free supernatants were used as negative controls. The samples were incubated at 37°C for 24 h in a water bath and then analyzed by RP-HPLC as described above.

BALB/c mice = test: In vivo acute toxicity, single injection; set-up: species or system mouse; conditions: single i.v. dose, all tested doses (5, 10, 20 mg/kg), three mice per dose, monitored 24 h
Description: Six-week-old mice (approximate weight: 18–20 g, SFP grade) were bred and maintained under specific pathogen-free conditions on a 12 h light/dark cycle. The peptides were dissolved in PBS (pH 7.4) and three mice were used for each dose. As a control, colistin was administered in a similar manner. The mice were monitored for 24 h and mice were weighed at the end of the experiment. The procedure was evaluated and approved by the Ethical Committee of Experimental Animals of the Chia Tai Tianqing Pharmaceutical Group in August 2019.
As summarized in Figure 6, a toxicity score was assigned as follows: no abnormalities = without signs; mild depression, poor motility, purple-black tail, and recovery in 1 h = mild signs; serious depression and poor motility even under stimulation = manifest signs; sudden death within 10 min = died of toxic effects.

Substance	fragment found (Trypsin)	fragment found [1]	also measured
DabHorLFDabDabLLDabYLHorDabF	(Dab) HorLFDab (Dab) 2–5, major, 18 h; also recorded: (Dab) HorLFDabDabLLDab (Y) 2–9, major, 18 h	(Hor) LFDabDabLLDabYLHorDabF 3–14, major, 12 h; also recorded: (Dab) HorLFDabDabLLDabYLHorDabF 2–14, major, 12 h	
DabHorLFDabDabLLDabYLRDabF	(Dab) YLRDab (F) 10–13, major, 18 h; also recorded: (Dab) DabLLDabYLRDab (F) 6–13, major, 18 h; also recorded: (Hor) LFDabDabLLDabYLR (Dab) 3–12, major, 18 h; also recorded: (Dab) HorLFDabDabLLDab (Y) 2–9, major, 18 h; also recorded: DabHorLFDabDabLLDabYLR (Dab) 1–12, major, 18 h	(Hor) LFDabDabLLDabYLRDabF, major, 12 h	
DabRLThiDapDabLLDabYLHorDabF	(Dab) RLThiDapDabLLDab (Y) 2–9, major, 18 h; also recorded: (R) LThiDapDabLLDabYLHor (Dab) 3–12, major, 18 h	(R) LThiDapDabLLDabYLHorDab F 3–14, major, 12 h; also recorded: (Dab) RLThiDapDabLLDabYLHorDabF 2–14, major, 12 h	
DapHorLFDapDapLLDabYLHorDabF	DapHorLFDapDapLLDab (Y) 1–9, major, 18 h; also recorded: DapHorLFDapDapLLDabYLHor (Dab) 1–12, major, 18 h	(Hor) LFDapDapLLDabYLHorDabF 3–14, major, 12 h; also recorded: (Dap) HorLFDapDapLLDabYLHorDabF 2–14, major, 12 h	
DapHorLFDapDapLLDabYLHorDabThi	(Dap) HorLFDap (Dap) 2–5, major, 18 h; also recorded: DapHorLFDapDapLLDab (Y) 1–9, major, 18 h; also recorded: DapHorLFDapDapLLDabYLHor (Dab) 1–12, major, 18 h; also recorded: (Dap) HorLFDapDapLLDabYLHorDabThi 2–14, major, 18 h	(Dap) HorLFDapDapLLDabYLHorDabThi 2–14, major, 12 h	
HorRLFKKLLKYLRKThi	(K) KLLK (Y) 6–9, major, 18 h; also recorded: (R) LFKK (L) 3–6, major, 18 h; also recorded: (K) LLK (Y) 7–9, major, 18 h; also recorded: (K) YLR (K) 10–12, major, 18 h; also recorded: (R) LFK (K) 3–5, major, 18 h	(R) LFKKLLKYLRKThi 3–14, major, 12 h; also recorded: (Hor) RLFKKLLKYLRKThi 2–14, major, 12 h	
KRLFKKLLKYLRKF	(R) LFK (K) 3–5, major, 18 h; also recorded: (K) LLK (Y) 7–9, major, 18 h; also recorded: (K) YLR (K) 10–12, major, 18 h; also recorded: (K) KLLK (Y) 6–9, major, 18 h; also recorded: (R) LFKK (L) 3–6, major, 18 h	(R) LFKKLLKYLRKF 3–14, major, 12 h; also recorded: (K) RLFKKLLKYLRKF 2–14, major, 12 h	
KRLFKKLLKYLRKF-NH2 [Pep05]			MIC (E. coli ATCC 25922): 1 mg/L; IC50 (RAW 264.7 cells): 13.4 ± 2.85 µM; Hemolysis rate (%) (human erythrocytes; 64 μM): 34.39 ± 1.49%; Hemolysis rate (%) (human erythrocytes; 128 μM): 49.18 ± 2.01%; metabolised at 2 h, 0.1 mg/mL (human plasma proteases): > 40%; metabolised at 4 h, 0.1 mg/mL (human plasma proteases): > 50%; MIC (S. aureus ATCC 25923): 1 mg/L; MIC [2]: 4 mg/L; MIC (P. aeruginosa ATCC 27853): 2 mg/L; MIC (C. albicans ATCC 10231): 4 mg/L; MIC [3]: 2 mg/L; MIC (A. baumannii ATCC 19606): 2 mg/L; remaining at 24 h, 0.5 mg/mL [4]: 22.2 ± 4.47%; signs of toxicity after intravenous injection (BALB/c mice): no obvious abnormalities
KRLFKKLLKYLRK[2Thi]	(K) Thi 14, major, 18 h; also recorded: (K) KLLK (Y) 6–9, major, 18 h; also recorded: (R)LFKK (L) 3–6, major, 18 h; also recorded: (K) LLK (Y) 7–9, major, 18 h; also recorded: (K) YLR (K) 10–12, major, 18 h; also recorded: (R) LFK (K) 3–5, major, 18 h	(L) FKKLLKYLRKThi 4–14, major, 12 h	
KRLFKKLLKYLRkF	(K) KLLK (Y) 6–9, major, 18 h; also recorded: (R) LFKK (L) 3–6, major, 18 h; also recorded: (K) LLK (Y) 7–9, major, 18 h; also recorded: (K) YLR (k) 10–12, major, 18 h; also recorded: (R) LFK (K) 3–5, major, 18 h; also recorded: (K) YLRkF 10–14, major, 18 h	(K) RLFK(K) 2–5, major, 12 h; also recorded: KRLFKKLLKYL (R) 1–11, major, 12 h; also recorded: (K) RLFKKLLKYLRkF 2–14, major, 12 h	
KRLFKRLFKYLRRF	(R) RF 13–14, major, 18 h; also recorded: (K) YLRR (F) 10–13, major, 18 h; also recorded: (R) F 14, major, 18 h; also recorded: (K) YLR (R) 10–12, major, 18 h	(K) YLRRF 10–14, major, 12 h; also recorded: (K) RLFKRLFKYLRRF 2–14, major, 12 h	
KRL[2Thi]KKLLKYLRK[2Thi]	(K) Thi 14, major, 18 h; also recorded: (R) LThiKK (L) 3–6, major, 18 h; also recorded: (K) KLLK (Y) 6–9, major, 18 h; also recorded: (K) LLK (Y) 7–9, major, 18 h; also recorded: (K) YLR (K) 10–12, major, 18 h; also recorded: (R) LThiK (K) 3–5, major, 18 h	(R) LThiKKLLKYLRKThi 3–14, major, 12 h; also recorded: (K) RLThiKKLLKYLRKThi 2–14, major, 12 h	
RRIFKRLFKYLRRF	(R) RF 13–14, major, 18 h; also recorded: (K) YLRR (F) 10–13, major, 18 h; also recorded: (R) F 14, major, 18 h; also recorded: (K) YLR (R) 10–12, major, 18 h	(R) IFKRLFKYLRRF 3–14, major, 12 h; also recorded: (R) RIFKRLFKYLRRF 2–14, major, 12 h	
[Aib]RLFKKLLKYLRK[2Thi]	(K) KLLK (Y) 6–9, major, 18 h; also recorded: (R) LFKK (L) 3–6, major, 18 h; also recorded: (K) LLK (Y) 7–9, major, 18 h; also recorded: (K) YLR (K) 10–12, major, 18 h; also recorded: (R) LFK (K) 3–5, major, 18 h	(R) LFKKLLKYLRKThi 3–14, major, 12 h	
krLFkkLLKYLRkF	(K) YLR (k) 10–12, major, 18 h; also recorded: krLFkkLLK (Y) 1–9, major, 18 h; also recorded: (K) YLRkF 10–14, major, 18 h	(K) YLRkF 10–14, major, 12 h; also recorded: krLFkkLL (K) 1–8, major, 12 h	
